From patent US20200399262A1, “COMPOUNDS FOR INHIBITING PROTEIN DEGRADATION AND METHODS OF USE THEREOF IN THE TREATMENT OF CANCER” (PI Therapeutics Ltd, priority 2018, published 2020)

Tests used:
Type in all cases: cell-based
CAKI-1 = test: Cell viability panel, CyQUANT Direct; conditions: Homo sapiens, Renal cancer, 48 hours, read-out: Compound EC50
Description: (§1) Cell viability panel studies. Cells were diluted in the corresponding ATCC recommended medium and dispensed in a 384-well plate, depending on the cell line used, at a density of 200-6400 cells per well. For each used cell line, the optimal cell density was used. Compound was serially diluted and 8 concentration (0.04-32 μM) were added to the cells for 72 h exposure. At t=end, of ATPlite 1Step™ (PerkinElmer) were used to calculate cell viability. Cell lines marked with asterisk were seeded 24 h prior to treatment in 96-well plates at the density range of 5,000-40,000 cells/well, according to duplication rate, in RPMI 1640 medium containing 10% fetal bovine serum and 2 mM L-glutamine. Compounds were diluted from 10 mM DMSO stock and treatment was applied at the range of 0.04-1 μM. Following incubation at 37° C. for 48 hours with increasing concentrations of the compounds, viability was determined with CyQUANT® Direct Assay Kit (Invitrogen). Output intensities were normalized to values after treatment with DMSO alone, and EC50 values were calculated using the absorbance measurements [time zero, (Tz), growth control, (C), plus the test growth at the four drug concentration levels (Ti)] as follows: [(Ti−Tz)/(C−Tz)]×100 for concentrations for which Ti>/=Tz; [(Ti−Tz)/Tz]×100 for concentrations for which Ti−<Tz.

EKVX = test: Cell viability panel, CyQUANT Direct; conditions: Homo sapiens, Lung cancer, 48 hours, read-out: Compound EC50
Description: as §1

HCC-2998 = test: Cell viability panel, CyQUANT Direct; conditions: Homo sapiens, Colon cancer, 48 hours, read-out: Compound EC50
Description: as §1

HOP-62 = test: Cell viability panel, CyQUANT Direct; conditions: Homo sapiens, Lung cancer, 48 hours, read-out: Compound EC50
Description: as §1

HOP-92 = test: Cell viability panel, CyQUANT Direct; conditions: Homo sapiens, Lung cancer, 48 hours, read-out: Compound EC50
Description: as §1

HT-29 = test: Cell viability panel, CyQUANT Direct; conditions: Homo sapiens, Colon cancer, 48 hours, read-out: Compound EC50
Description: as §1

IGR-OV1 = test: Cell viability panel, CyQUANT Direct; conditions: Homo sapiens, IGROV-1, Ovarian cancer, 48 hours, read-out: Compound EC50
Description: as §1

KM-12 = test: Cell viability panel, CyQUANT Direct; conditions: Homo sapiens, KM12, Colon cancer, 48 hours, read-out: Compound EC50
Description: as §1

M14 = test: Cell viability panel, CyQUANT Direct; conditions: Homo sapiens, Melanoma, 48 hours, read-out: Compound EC50
Description: as §1

MALME-3M = test: Cell viability panel, CyQUANT Direct; conditions: Homo sapiens, Melanoma, 48 hours, read-out: Compound EC50
Description: as §1

MDA-MB-435 = test: Cell viability panel, CyQUANT Direct; conditions: Homo sapiens, Melanoma, 48 hours, read-out: Compound EC50
Description: as §1

MDA-MB-468 = test: Cell viability panel, CyQUANT Direct; conditions: Homo sapiens, Breast cancer, 48 hours, read-out: Compound EC50
Description: as §1

NCI-H23 = test: Cell viability panel, CyQUANT Direct; conditions: Homo sapiens, Lung cancer, 48 hours, read-out: Compound EC50
Description: as §1

NCI-H322M = test: Cell viability panel, CyQUANT Direct; conditions: Homo sapiens, Lung cancer, 48 hours, read-out: Compound EC50
Description: as §1

OVCAR-5 = test: Cell viability panel, CyQUANT Direct; conditions: Homo sapiens, Ovarian Cancer, 48 hours, read-out: Compound EC50
Description: as §1

SF-268 = test: Cell viability panel, CyQUANT Direct; conditions: Homo sapiens, CNS, 48 hours, read-out: Compound EC50
Description: as §1

SF-295 [1] = test: Cell viability panel, CyQUANT Direct; conditions: Homo sapiens, CNS, 48 hours, read-out: Compound EC50
Description: as §1

SF-539 = test: Cell viability panel, CyQUANT Direct; conditions: Homo sapiens, CNS, 48 hours, read-out: Compound EC50
Description: as §1

SK-MEL-2 = test: Cell viability panel, CyQUANT Direct; conditions: Homo sapiens, Melanoma, 48 hours, read-out: Compound EC50
Description: as §1

SK-OV-3 = test: Cell viability panel, CyQUANT Direct; conditions: Homo sapiens, Ovarian, 48 hours, read-out: Compound EC50
Description: as §1

SN12C = test: Cell viability panel, CyQUANT Direct; conditions: Homo sapiens, Renal cancer, 48 hours, read-out: Compound EC50
Description: as §1

TK-10 = test: Cell viability panel, CyQUANT Direct; conditions: Homo sapiens, Renal cancer, 48 hours, read-out: Compound EC50
Description: as §1

UACC-257 [2] = test: Cell viability panel, CyQUANT Direct; conditions: Homo sapiens, Melanoma, 48 hours, read-out: Compound EC50
Description: as §1

UACC-62 = test: Cell viability panel, CyQUANT Direct; conditions: Homo sapiens, Melanoma, 48 hours, read-out: Compound EC50
Description: as §1

MOLT-4 = test: NCI60 screen cytotoxicity; conditions: Homo sapiens, Leukemia, read-out: Compound B1 EC50
K-562 = test: NCI60 screen cytotoxicity; conditions: Homo sapiens, K562, Leukemia, read-out: Compound B1 EC50
UO-31 = test: NCI60 screen cytotoxicity; conditions: Homo sapiens, Renal cancer, read-out: Compound B1 EC50
UACC-257 [3] = test: NCI60 screen cytotoxicity; conditions: Homo sapiens, Melanoma, read-out: Compound B1 EC50
SF-295 [4] = test: NCI60 screen cytotoxicity; conditions: Homo sapiens, CNS, read-out: Compound B1 EC50
SNB-19 = test: NCI60 screen cytotoxicity; conditions: Homo sapiens, CNS, read-out: Compound B1 EC50
[5] = tested on: autophagic vacuoles in MM1.S cells; test: Autophagy quantification with CYTO-ID dye, flow cytometry; conditions: 0.2 μM, 5 hours, vs vehicle
Description: MM1.S cells were treated with 0.2 μM Compound B1 or vehicle (DMSO) for 5 h. Detection of autophagy vesicles was done by CYTO-ID® green autophagy dye that selectively labels autophagic vacuoles. The samples were analyzed using flow cytometer and the data were plotted on histogram: cell counts vs. FITC fluorescence intensity.
Autophagy Quantification: Quantification of autophagosomes were done with CytoID (ENZO). CYTO-ID® Autophagy Detection Kit measures autophagic vacuoles and monitors autophagic flux in live cells using a dye that selectively labels autophagic vacuoles. The probe is a cationic amphiphilic tracer dye that rapidly partitions into cells in a similar manner as drugs that induce phospholipidosis. MM1.S cells were treated with Compound B1 or vehicle for 5 hours. Following treatment period the cells were harvested and stained with CytoID dye according to manufacturer instructions. Autophagosomes were analyzed and quantified using flow cytometer (Miltenyi). Data of cell counts were plotted as FITC (FL1) fluorescence intensity.

Compound: CN(C)CCCS(=O)(=O)N1C/C(=C\c2ccc(C#N)cc2)C(=O)/C(=C/c2ccc(C#N)cc2)C1 [Compound AA]
- EC50 (CAKI-1): ≥ 1000 nM
- EC50 (EKVX): 300 to 1000 nM
- EC50 (HCC-2998): 300 to 1000 nM
- EC50 (HOP-62): 300 to 1000 nM
- EC50 (HOP-92): 300 to 1000 nM
- EC50 (HT-29): 300 to 1000 nM
- EC50 (IGR-OV1): < 300 nM
- EC50 (KM-12): < 300 nM
- EC50 (M14): < 300 nM
- EC50 (MALME-3M): < 300 nM
- EC50 (MDA-MB-435): < 300 nM
- EC50 (MDA-MB-468): < 300 nM
- EC50 (NCI-H23): 300 to 1000 nM
- EC50 (NCI-H322M): 300 to 1000 nM
- EC50 (OVCAR-5): < 300 nM
- EC50 (SF-268): < 300 nM
- EC50 (SF-295 [1]): < 300 nM
- EC50 (SF-539): < 300 nM
- EC50 (SK-MEL-2): < 300 nM
- EC50 (SK-OV-3): < 300 nM
- EC50 (SN12C): < 300 nM
- EC50 (TK-10): 300 to 1000 nM
- EC50 (UACC-257 [2]): 300 to 1000 nM
- EC50 (UACC-62): < 300 nM

Compound: CN(C)CC(=O)NCC(=O)N1C/C(=C\c2ccc(C#N)cc2)C(=O)/C(=C/c2ccc(C#N)cc2)C1 [Compound B1]
- EC50 (MOLT-4): < 300 nM
- EC50 (K-562): < 300 nM
- EC50 (UO-31): 300 to 1000 nM
- EC50 (UACC-257 [3]): 300 to 1000 nM
- EC50 (SF-295 [4]): < 300 nM
- EC50 (SNB-19): 300 to 1000 nM
- autophagosomal vesicles (CYTO-ID fluorescence) [5]: significantly lower fluorescent dye then vehicle treated cells
